Earlier results, collected in patent publication US20040147441A1, “Methods and reagents for preventing bacteremias” (priority 2002, published 2004).
Values after ≈ are worked out from the molar mass of the structure shown.

Assays:
S. aureus Strain Smith = details: Mueller-Hinton Broth
[1] = system: E. faecalis (strains K-99-34, K-00-184, and K-00-221); details: Rhee 2002
[2] = system: S. aureus (methicillin susceptible); details: J. Antimicrob. Chemother. 48: 283-286, 2001
[3] = system: S. aureus (methicillin resistant)
[4] = system: S. pneumoniae (penicillin susceptible)
[5] = system: S. pneumoniae (penicillin resistant)
[6] = system: E. facium (vancomycin susceptible)
[7] = system: E. facium (vancomycin resistant)
[8] = system: E. faecalis (vancomycin susceptible)
[9] = system: E. facium (multidrug resistant); details: Mobarakai et al. 1994
C. Difficile = details: Dong et al. 1987

Laspartomycin
MIC (no CaCl2) (S. aureus Strain Smith): 16 µg/mL | MIC (with CaCl2) (S. aureus Strain Smith): 2 µg/mL

CC(C)C[C@@H]1NC(=O)[C@@H]2CCCN2C1=O [Cyclo(leu-pro), cyclo-(Leu-Pro)]
MIC (minimal growth inhibitory concentration) [1]: MIC = 12.5 μg/ml

CN[C@H](CC(C)C)C(=O)N[C@H]1C(=O)N[C@@H](CC(N)=O)C(=O)N[C@H]2C(=O)N[C@H]3C(=O)N[C@H](C(=O)N[C@H](C(=O)O)c4cc(O)cc(O)c4-c4cc3ccc4O)[C@H](O[C@H]3C[C@](C)(N)[C@@H](O)[C@H](C)O3)c3ccc(c(Cl)c3)Oc3cc2cc(c3O[C@@H]2O[C@H](CO)[C@@H](O)[C@H](O)[C@H]2O[C@H]2C[C@](C)(NCc3ccc(-c4ccc(Cl)cc4)cc3)[C@@H](O)[C@H](C)O2)Oc2ccc(cc2Cl)[C@H]1O [oritavancin]
MBC (minimal bactericidal concentration) [2]: 4.0 to 8.0 µg/mL | MIC (minimal growth inhibitory concentration) [2]: 2.0 to 4.0 µg/mL | MBC (minimal bactericidal concentration) [3]: 8.0 to 16.0 µg/mL | MIC (minimal growth inhibitory concentration) [3]: 2.0 to 4.0 µg/mL | MBC (minimal bactericidal concentration) [4]: MIC = <0.03; MBC = <0.03 μg/ml | MIC (minimal growth inhibitory concentration) [4]: MIC = <0.03; MBC = <0.03 μg/ml | MBC (minimal bactericidal concentration) [5]: MIC = <0.03; MBC = <0.03 μg/ml | MIC (minimal growth inhibitory concentration) [5]: MIC = <0.03; MBC = <0.03 μg/ml | MBC (minimal bactericidal concentration) (S. pyrogens): 0.5 to 1.0 µg/mL | MIC (minimal growth inhibitory concentration) (S. pyrogens): 0.12 to 0.25 µg/mL | MBC (minimal bactericidal concentration) [6]: 1.0 to 2.0 µg/mL | MIC (minimal growth inhibitory concentration) [6]: 0.12 to 0.25 µg/mL | MBC (minimal bactericidal concentration) [7]: 4.0 to 8.0 µg/mL | MIC (minimal growth inhibitory concentration) [7]: 1.0 to 2.0 µg/mL | MBC (minimal bactericidal concentration) [8]: 1.0 to 2.0 µg/mL | MIC (minimal growth inhibitory concentration) [8]: 0.5 to 1.0 µg/mL

CCCCCCCCCC(=O)N[C@@H](Cc1c[nH]c2ccccc12)C(=O)N[C@H](CC(N)=O)C(=O)N[C@@H](CC(=O)O)C(=O)N[C@@H]1C(=O)NCC(=O)N[C@@H](CCCN)C(=O)N[C@@H](CC(=O)O)C(=O)N[C@H](C)C(=O)N[C@@H](CC(=O)O)C(=O)NCC(=O)N[C@H](CO)C(=O)N[C@@H]([C@H](C)CC(=O)O)C(=O)N[C@@H](CC(=O)c2ccccc2N)C(=O)O[C@@H]1C [daptomycin]
MIC (minimal growth inhibitory concentration) [9]: MIC = 2.0-4.0 μg/ml | MIC (minimal growth inhibitory concentration) (C. Difficile): MIC = 16.0 μg/ml | MIC (no CaCl2) (S. aureus Strain Smith): 1 µg/mL (≈ 0.617 µM) | MIC (with CaCl2) (S. aureus Strain Smith): 0.5 µg/mL (≈ 0.309 µM)

teicoplanin
MBC (minimal bactericidal concentration) [2]: 2.0 to 8.0 µg/mL | MIC (minimal growth inhibitory concentration) [2]: 0.5 to 4.0 µg/mL | MBC (minimal bactericidal concentration) [3]: 8.0 to 16.0 µg/mL | MIC (minimal growth inhibitory concentration) [3]: 2.0 to 4.0 µg/mL | MBC (minimal bactericidal concentration) [4]: MIC = <0.03; MBC = <0.03 μg/ml | MIC (minimal growth inhibitory concentration) [4]: MIC = <0.03; MBC = <0.03 μg/ml | MBC (minimal bactericidal concentration) [5]: MIC = <0.03; MBC = <0.03 μg/ml | MIC (minimal growth inhibitory concentration) [5]: MIC = <0.03; MBC = <0.03 μg/ml | MBC (minimal bactericidal concentration) (S. pyrogens): 0.06 to 0.25 µg/mL | MIC (minimal growth inhibitory concentration) (S. pyrogens): 0.03 to 0.06 µg/mL | MBC (minimal bactericidal concentration) [6]: 2.0 to 4.0 µg/mL | MIC (minimal growth inhibitory concentration) [6]: 0.25 to 0.5 µg/mL | MBC (minimal bactericidal concentration) [7]: MIC = >16.0; MBC = >16.0 μg/ml | MIC (minimal growth inhibitory concentration) [7]: MIC = >16.0; MBC = >16.0 μg/ml | MIC (minimal growth inhibitory concentration) [9]: MIC 8.0-1,024 μg/ml | MBC (minimal bactericidal concentration) [8]: 2.0 to 4.0 µg/mL | MIC (minimal growth inhibitory concentration) [8]: > 0.25 µg/mL

Zaomycin
MIC (no CaCl2) (S. aureus Strain Smith): 10 µg/mL | MIC (with CaCl2) (S. aureus Strain Smith): 1 µg/mL

Aspartocin
MIC (no CaCl2) (S. aureus Strain Smith): 2 µg/mL | MIC (with CaCl2) (S. aureus Strain Smith): 1 µg/mL
